Assays:
bedstraw = experiment: Test B pre/postemergence bedstraw; format: in vivo, Galium aparine
Procedure, shortened: (§1)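 Response is a visual 0-to-10 score relative to untreated plants, where 0 means no effect and 10 means complete control, taken twelve to sixteen days after application. Treatments went onto soil at planting and onto foliage of 1- to 4-leaf plants, using a surfactant-containing non-phytotoxic solvent.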

blackgrass = experiment: Test B pre/postemergence blackgrass; format: in vivo, Alopecurus myosuroides
Procedure, shortened: as §1

surinam grass = experiment: Test B pre/postemergence surinam grass; format: in vivo, Brachiaria decumbens
Procedure, shortened: as §1

cocklebur = experiment: Test B pre/postemergence cocklebur; format: in vivo, Xanthium strumarium
Procedure, shortened: as §1

corn = experiment: Test B pre/postemergence corn; format: in vivo, Zea mays
Procedure, shortened: as §1

giant foxtail = experiment: Test B pre/postemergence giant foxtail; format: in vivo, Setaria faberii
Procedure, shortened: as §1

morningglory = experiment: Test B pre/postemergence morningglory; format: in vivo, Ipomoea hederacea
Procedure, shortened: as §1

pigweed = experiment: Test B pre/postemergence pigweed; format: in vivo, Amaranthus retroflexus
Procedure, shortened: as §1

rape = experiment: Test B pre/postemergence rape; format: in vivo, Brassica napus
Procedure, shortened: as §1

sugar beet = experiment: Test B pre/postemergence sugar beet; format: in vivo, Beta vulgaris; settings: for Plant response rating, Sugarbeets: Rate 250 g/ha
Procedure, shortened: as §1

velvetleaf = experiment: Test B pre/postemergence velvetleaf; format: in vivo, Abutilon theophrasti; settings: for Plant response rating, Velvetleaf: Rate 250 g/ha
Procedure, shortened: as §1

purple nutsedge = experiment: Test B pre/postemergence purple nutsedge; format: in vivo, Cyperus rotundus
Procedure, shortened: as §1

rice = experiment: Test B flood test rice; format: in vivo, Oryza sativa
Procedure, shortened: (§2)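 Plants were grown to the 2-leaf stage before treatment with test chemical, then held in a greenhouse for twelve to sixteen days. Injury was visually rated against untreated controls on a 0–10 scale, where 0 is no effect and 10 is complete control.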

duck salad = experiment: Test B flood test duck salad; format: in vivo, Heteranthera limosa
Procedure, shortened: as §2

bamyardgrass = experiment: Test B flood test barnyardgrass; format: in vivo, Echinochloa crus-galli
Procedure, shortened: as §2

[1] = Postemergence, Rate 62 g/ha, scale 0 to 10, 0 is no effect, 10 is complete control
[2] = Postemergence, Rate 250 g/ha, scale 0 to 10, 0 no effect, 10 complete control
[3] = Preemergence, Rate 62 g/ha, scale 0 to 10 (0 no effect, 10 complete control)
[4] = Preemergence, Rate 125 g/ha, scale 0 to 10 (0 no effect, 10 complete control)
[5] = Preemergence, Rate 250 g/ha, scale of 0 to 10 where 0 is no effect and 10 is complete control
[6] = Preemergence, Rate 500 g/ha, scale 0 (no effect) to 10 (complete control)
[7] = Rate 125 g/ha, Postemergence, scale 0 to 10, 0 no effect, 10 complete control
[8] = Rate 500 g/ha, Postemergence, scale 0 to 10, 0 no effect, 10 complete control
[9] = Postemergence, Rate 125 g/ha, scale of 0 to 10 where 0 is no effect and 10 is complete control
[10] = Preemergence, Rate 125 g/ha, 0 is no effect, 10 is complete control
[11] = Preemergence, scale of 0 to 10 where 0 is no effect and 10 is complete control
[12] = Postemergence, scale 0 to 10, 0 is no effect, 10 is complete control
[13] = Postemergence (flood test species), Rate 125 g/ha, scale of 0 to 10 where 0 is no effect and 10 is complete control
[14] = Rate 500 g/ha, listed under Postemergence (flood test species), scale 0 to 10, 0 no effect, 10 complete control
[15] = flood test, listed under Postemergence, Rate 250 g/ha, scale 0 to 10, 0 no effect, 10 complete control

Cc1nn(C)c(Cl)c1-n1c(=O)on(C(=O)N(c2ccc(F)cc2F)C(C)C)c1=O [Compound 96]
2: Bedstraw plant response rating (bedstraw; [6]) | B. signalgrass plant response rating (surinam grass; [6]) | Cocklebur plant response rating (cocklebur; [8]) | Giant foxtail plant response rating (giant foxtail; [3]) | Plant response rating, Giant foxtail (giant foxtail; [4]) | Morningglory plant response rating (morningglory; [8]) | Sugarbeets plant response rating (sugar beet; [6]) | Rice plant response rating (rice; [14])
8: Blackgrass plant response rating (blackgrass; [6]) | Giant foxtail plant response rating (giant foxtail; [6]) | Redroot pigweed plant response rating (pigweed; [6])
1: Plant response rating, B. signalgrass (surinam grass; [5]) | Morningglory plant response rating (morningglory; [1]) | Morningglory plant response rating (morningglory; [9]) | Morningglory plant response rating (morningglory; [2])
3: Plant response rating, Blackgrass (blackgrass; [4]) | Plant response rating, Blackgrass (blackgrass; [5]) | Plant response rating, Giant foxtail (giant foxtail; [5]) | Giant foxtail plant response rating (giant foxtail; [8]) | Rape plant response rating (rape; [6])
0: Bedstraw plant response rating (bedstraw; [1]) | Bedstraw plant response rating (bedstraw; [2]) | Bedstraw plant response rating (bedstraw; [3]) | Plant response rating, Bedstraw (bedstraw; [4]) | Plant response rating, Bedstraw (bedstraw; [5]) | Bedstraw plant response rating (bedstraw; [7]) | Bedstraw plant response rating (bedstraw; [8]) | Blackgrass plant response rating (blackgrass; [1]) | Blackgrass plant response rating (blackgrass; [9]) | Blackgrass plant response rating (blackgrass; [2]) | Blackgrass plant response rating (blackgrass; [3]) | Blackgrass plant response rating (blackgrass; [8]) | B. signalgrass plant response rating (surinam grass; [1]) | B. signalgrass plant response rating (surinam grass; [2]) | B. signalgrass plant response rating (surinam grass; [3]) | Plant response rating, B. signalgrass (surinam grass; [4]) | B. signalgrass plant response rating (surinam grass; [7]) | B. signalgrass plant response rating (surinam grass; Rate 500 g/ha, Postemergence, scale of 0 to 10 where 0 is no effect and 10 is complete control) | Cocklebur plant response rating (cocklebur; [1]) | Cocklebur plant response rating (cocklebur; [9]) | Cocklebur plant response rating (cocklebur; [2]) | Cocklebur plant response rating (cocklebur; [3]) | Plant response rating, Cocklebur (cocklebur; [4]) | Plant response rating, Cocklebur (cocklebur; [5]) | Cocklebur plant response rating (cocklebur; [6]) | Corn plant response rating (corn; [1]) | Corn plant response rating (corn; [9]) | Corn plant response rating (corn; [2]) | Corn plant response rating (corn; [3]) | Plant response rating, Corn (corn; [4]) | Plant response rating, Corn (corn; [5]) | Corn plant response rating (corn; [6]) | Corn plant response rating (corn; [8]) | Giant foxtail plant response rating (giant foxtail; [1]) | Giant foxtail plant response rating (giant foxtail; [9]) | Giant foxtail plant response rating (giant foxtail; [2]) | Morningglory plant response rating (morningglory; [3]) | Plant response rating, Morningglory (morningglory; [4]) | Plant response rating, Morningglory (morningglory; [5]) | Morningglory plant response rating (morningglory; [6]) | Redroot pigweed plant response rating (pigweed; [1]) | Redroot pigweed plant response rating (pigweed; [9]) | Plant response rating, Redroot pigweed (pigweed; Rate 250 g/ha, Postemergence, scale 0 to 10, 0 is no effect, 10 is complete control) | Redroot pigweed plant response rating (pigweed; [8]) | Rape plant response rating (rape; [1]) | Rape plant response rating (rape; [9]) | Rape plant response rating (rape; [2]) | Rape plant response rating (rape; [3]) | Plant response rating, Rape (rape; [4]) | Plant response rating, Rape (rape; [5]) | Rape plant response rating (rape; [8]) | Sugarbeets plant response rating (sugar beet; [1]) | Sugarbeets plant response rating (sugar beet; [9]) | Sugarbeets plant response rating (sugar beet; [3]) | Sugarbeets plant response rating (0 to 10 scale) (sugar beet; [10]) | Plant response rating, Sugarbeets (sugar beet; [11]) | Plant response rating, Sugarbeets (sugar beet; [12]) | Sugarbeets plant response rating (sugar beet; [8]) | Velvetleaf plant response rating (velvetleaf; [1]) | Velvetleaf plant response rating (velvetleaf; [9]) | Velvetleaf plant response rating (velvetleaf; [3]) | Velvetleaf plant response rating (0 to 10 scale) (velvetleaf; [10]) | Plant response rating, Velvetleaf (velvetleaf; [11]) | Velvetleaf plant response rating (velvetleaf; [6]) | Plant response rating, Velvetleaf (velvetleaf; [12]) | Velvetleaf plant response rating (velvetleaf; [8]) | Nutsedge plant response rating (purple nutsedge; [1]) | Nutsedge plant response rating (purple nutsedge; [9]) | Nutsedge plant response rating (purple nutsedge; [2]) | Nutsedge plant response rating (purple nutsedge; [3]) | Plant response rating, Nutsedge (purple nutsedge; [4]) | Plant response rating, Nutsedge (purple nutsedge; [5]) | Nutsedge plant response rating (purple nutsedge; [6]) | Nutsedge plant response rating (purple nutsedge; [8]) | Rice plant response rating (rice; [13]) | Rice plant response rating (rice; [1]) | Plant response rating, Rice (rice; Rate 250 g/ha, Postemergence (flood test), scale 0 to 10, 0 is no effect, 10 is complete control) | Ducksalad plant response rating (duck salad; [13]) | Ducksalad plant response rating (duck salad; [1]) | Ducksalad plant response rating (duck salad; [14]) | Ducksalad plant response rating (duck salad; [15]) | Barnyardgrass plant response rating (bamyardgrass; [1]) | Barnyardgrass plant response rating (bamyardgrass; Rate 125 g/ha, Postemergence section (flood test species), scale 0 to 10, 0 no effect, 10 complete control) | Barnyardgrass plant response rating (bamyardgrass; [14]) | Barnyardgrass plant response rating (bamyardgrass; [15])
6: Plant response rating, Redroot pigweed (pigweed; [4])
7: Plant response rating, Redroot pigweed (pigweed; [5])
